Data: patent publication US20170066717A1, “NEW PHENYLAZETIDINECARBOXYLATE OR -CARBOXAMIDE COMPOUNDS” (INVENTIVA, priority 2014, published 2017)

Experiments:
[1] = test system: dopaminergic neurons of primary culture of rat embryo mesencephalon treated with MPP+; assay: Neuroprotection in primary culture of rat embryo mesencephalon treated with MPP+ (count of tyrosine hydroxylase expressing cells); assay type: cell-based; settings: recombinant human BDNF 10 ng/mL = 100%, 2 days with MPP+
Experimental: Another in vitro test was carried out with the compounds according to the invention, for the purpose of verifying that the molecules indeed have the expected neuroprotective effect in vitro.
The compounds were tested in a model of primary culture of rat embryo mesencephalon treated with 1-methyl-4-phenylpyridinium (MPP+), which is the active metabolite of 1-methyl-4-phenyl-1,2,3,6-tetrahydropyridine (MPTP). MPP+ enters into dopananergic neurons via the dopamine transporter and causes the death of these dopaminergic neurons. The following protocol was used.
Gestating female rats (15 days of gestation) were euthanized and the rat embryos were removed. The mesencephalons were removed. The tissue was then dissociated mechanically and by using trypsin. The cells collected after centrifugation were distributed into 96-well plates and left to stand for 5 days. The culture conditions made it possible to obtain a cell layer composed of neurons (dopaminergic and others) and astrocytes. On the 6th day, the cells were optionally treated with MPP+ in the presence or absence of test compound. After 2 days of incubation, the cells were fixed and various cell labellings were carried out; staining of the nuclei with the Hoechst fluorescent label and immunolabelling of tyrosine hydroxylase. The cells expressing tyrosine hydroxylase were counted using an image analyzer coupled to an optical microscope.
Recombinant human BDNF trophic factor (10 ng/mL) was used as reference. The activities of the compounds are given as percentages of activity relative to the BDNF reference, the activity of which is arbitrarily defined as being equal to 100%.

NURR-1/RXRγ = target: T1, NURR-1/RXRγ (Homo sapiens, UniProt P48443); assay: Transactivation test, NURR-1-Gal4/RXRγ, luciferase reporter in Cos-7 cells; assay type: cell-based; settings: for Emax: COS-7, induction level relative to reference XCT0135908 at 2×10^−5 M (=100%), read-out: hNurr1_RXRgFL Emax (%); for EC50: Cos-7 cells, NURR-1-Gal4/RXRγ, luciferase reporter, read-out: hNurr1_RXRgFL EC50
T1 construct: expressed in transfected cells; host or cells: Cos-7 cells
T1 sequence (P48443 whole entry, the tested form may be a part): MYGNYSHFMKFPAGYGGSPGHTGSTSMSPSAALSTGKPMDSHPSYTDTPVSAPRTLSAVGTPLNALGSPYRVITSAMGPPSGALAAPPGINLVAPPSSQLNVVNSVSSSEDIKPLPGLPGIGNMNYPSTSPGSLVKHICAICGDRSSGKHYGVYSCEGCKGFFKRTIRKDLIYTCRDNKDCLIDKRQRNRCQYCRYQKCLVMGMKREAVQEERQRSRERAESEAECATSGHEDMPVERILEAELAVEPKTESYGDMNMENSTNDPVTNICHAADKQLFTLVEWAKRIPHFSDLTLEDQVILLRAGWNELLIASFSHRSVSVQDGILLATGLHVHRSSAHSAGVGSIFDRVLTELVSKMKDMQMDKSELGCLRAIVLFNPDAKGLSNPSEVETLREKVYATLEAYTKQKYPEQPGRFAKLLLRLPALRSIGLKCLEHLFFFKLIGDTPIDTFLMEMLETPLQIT
T1 sequence (P43354 whole entry partner, the tested form may be a part): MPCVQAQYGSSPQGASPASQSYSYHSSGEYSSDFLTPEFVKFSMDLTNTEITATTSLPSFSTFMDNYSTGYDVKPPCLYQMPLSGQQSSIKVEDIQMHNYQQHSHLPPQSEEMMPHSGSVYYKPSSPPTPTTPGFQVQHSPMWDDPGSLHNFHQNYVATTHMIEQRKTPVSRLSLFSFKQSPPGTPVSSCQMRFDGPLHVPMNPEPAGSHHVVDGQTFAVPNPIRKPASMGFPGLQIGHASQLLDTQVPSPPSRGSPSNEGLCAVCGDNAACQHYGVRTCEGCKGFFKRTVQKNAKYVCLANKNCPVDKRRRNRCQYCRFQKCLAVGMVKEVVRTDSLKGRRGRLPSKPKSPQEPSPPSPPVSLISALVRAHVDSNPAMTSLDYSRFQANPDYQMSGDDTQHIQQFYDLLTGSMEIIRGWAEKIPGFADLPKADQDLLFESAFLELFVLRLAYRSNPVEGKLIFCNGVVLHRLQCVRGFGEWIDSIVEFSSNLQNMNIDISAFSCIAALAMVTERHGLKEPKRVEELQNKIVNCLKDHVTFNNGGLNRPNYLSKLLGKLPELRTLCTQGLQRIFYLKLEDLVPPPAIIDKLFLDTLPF
T1 sequence (P04386 1-147 partner limits assumed): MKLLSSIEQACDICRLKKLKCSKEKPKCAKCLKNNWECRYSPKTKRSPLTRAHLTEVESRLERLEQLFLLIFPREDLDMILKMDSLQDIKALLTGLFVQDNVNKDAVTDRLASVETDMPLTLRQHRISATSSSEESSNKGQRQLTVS

NURR-1/RXRα = target: T2, NURR-1/RXRα (Homo sapiens, UniProt P19793); assay: Transactivation test, NURR-1-Gal4/RXRα, luciferase reporter in Cos-7 cells; assay type: cell-based; settings: for Emax: COS-7, induction level relative to reference XCT0135908 at 2×10^−5 M (=100%), read-out: hNurr1_RXRaFL Emax (%); for EC50: Cos-7 cells, NURR-1-Gal4/RXRα, luciferase reporter, read-out: hNurr1_RXRaFL EC50
T2 construct: expressed in transfected cells; host or cells: Cos-7 cells
T2 sequence (P19793 whole entry, the tested form may be a part): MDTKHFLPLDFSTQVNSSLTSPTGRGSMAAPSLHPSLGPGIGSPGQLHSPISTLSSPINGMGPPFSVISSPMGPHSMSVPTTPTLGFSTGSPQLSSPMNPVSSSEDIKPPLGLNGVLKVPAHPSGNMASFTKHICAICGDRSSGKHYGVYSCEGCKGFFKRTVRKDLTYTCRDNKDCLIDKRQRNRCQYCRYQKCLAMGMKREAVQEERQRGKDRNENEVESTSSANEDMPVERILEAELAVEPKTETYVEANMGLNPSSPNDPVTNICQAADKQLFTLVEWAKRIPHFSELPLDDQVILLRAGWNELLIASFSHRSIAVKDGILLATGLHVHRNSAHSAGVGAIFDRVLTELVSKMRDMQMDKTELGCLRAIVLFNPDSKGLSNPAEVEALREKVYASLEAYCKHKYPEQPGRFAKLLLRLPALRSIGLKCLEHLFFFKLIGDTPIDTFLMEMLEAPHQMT
T2 sequence (P43354 whole entry partner, the tested form may be a part): as the sequence (P43354 whole entry partner, the tested form may be a part) above
T2 sequence (P04386 1-147 partner limits assumed): as the sequence (P04386 1-147 partner limits assumed) above

melting point [°C] | Compound | percentage of activity relative to the BDNF reference ([1]; compound 1 μM) [%] | percentage of activity relative to the BDNF reference ([1]; compound 10 μM) [%] | Emax (NURR-1/RXRγ) [%] | EC50 (NURR-1/RXRγ) [nM] | Emax (NURR-1/RXRα) [%] | EC50 (NURR-1/RXRα) [nM]
– | Cc1cc(-c2cccc(N3CC(C(=O)O)C3)c2)cc(C(F)(F)F)c1 [Example 12, 1-[3-[3-methyl-5-(trifluoromethyl)phenyl]phenyl]azetidine-carboxylic acid] | 64 | 74 | 129 | 48 | 122 | 46
– | Cc1cc(N2CC(C(=O)O)C2)cc(-n2cc(C)c3nc(C(F)(F)F)ccc32)c1 [Example 58, 1-[3-methyl-5-[3-methyl;-5-(trifluoromethyl)pyrrol[3,2,-b]pyridine-1-yl]phenyl]azetidine-3-carboxylic acid] | 80 | 79 | 102 | 13 | 118 | 7
– | CC1(C)CNc2c(cc(C(F)(F)F)cc2-c2cccc(N3CC(C(=O)O)C3)c2)O1 [Example 61, 1-[3-[2,2-dimethyl-7-(trifluoromethyl)-3,4 dihydro-1,4-benzoxazin-5-yl]phenyl]azetidine-3-carboxylic acid] | 85 | 106 | 107 | 15 | 91 | 8
– | Cc1cc(-c2cc(C(F)(F)F)cc3c2NCC(C)(C)O3)cc(N2CC(C(=O)O)C2)c1 [Example 64, 1-[3-[2,2,-dimethyl-7-(triflouormethyl)3,4-dihydro-1,4-benzoxazin-5-yl]-5-methylphenyl]azetidine-3-carboxylic acid] | 81 | 92 | 109 | 4 | 99 | 4
– | CC(Oc1ccc(C(F)(F)F)cc1-c1cccc(N2CC(C(=O)O)C2)c1)c1ccccc1 (centres unmarked) [Example 98, 1-[3-[2-(1-phenylethoxy)-5-(trifluoromethyl)phenyl]phenyl]azetidine-3-carboxylic acid] | 86 | 132 | 42 | 7 | 51 | 5
– | O=C(O)C1CN(c2cccc(-c3cc(C(F)(F)F)ccc3OCC3CCCCC3)c2)C1 [Example 104, 1-[3-[2-(cyclohenxylemthoxy)-5-(trifluoromethyl)phenyl]phenyl]azetidine-3-carboxylic acid] | 109 | – | 42 | 43 | 40 | 50
– | CCOc1ccc(C(F)(F)F)cc1-c1cccc(N2CC(C(=O)O)C2)c1 [Example 109, 1-[3-[2-ethoxy-5-(trifluoromethyl)phenyl]phenyl]azetidine-3-carboxylic acid] | 145 | 147 | 112 | 67 | 86 | 39
– | CCC1CN(c2cccc(N3CC(C(=O)O)C3)c2)c2ccc(C(F)(F)F)cc2O1 (centres unmarked) [Example 114, 1-[3-[2-ethyl-7-(trifluoromethyl)-2,3-dihydro-1,4-benzoxazin-4-yl]phenyl]azetidine-3-carboxylic acid] | 101 | 89 | 150 | 11 | 139 | 9
– | CCCC1CN(c2cccc(N3CC(C(=O)O)C3)c2)c2ccc(C(F)(F)F)cc2O1 (centres unmarked) [Example 117, 1-[3-[2-propyl-7-(tirfluormethyl)2,3-dihydro-1,4-benzoxazin-4-yl]phenyl]azetidine-3-carboxylic acid] | 75 | 84 | 125 | 4 | 103 | 9
– | CC(C)Cc1cn(-c2cccc(N3CC(C(=O)O)C3)c2)c2ccc(C(F)(F)F)cc12 [Example 125, 1-[3-[3-isobutyl-5-(trifluoromethyl)indol-1-yl]phenyl]azetidine-3-carboxylic acid] | 86 | 107 | 162 | 2 | 152 | 4
– | CN(C)S(=O)(=O)c1cn(-c2cccc(N3CC(C(=O)O)C3)c2)c2ccc(C(F)(F)F)cc12 [Example 136, 1-[3-[3-(dimethylsulfamoyl)-5-(trifluoromethyl)indol-1-yl]phenyl]azetidine-3-carboxylic acid] | 49 | 86 | 121 | 55 | 128 | 22
195 to 199 | O=C(O)C1CN(c2cccc(N3C(=O)COc4cc(C(F)(F)F)ccc43)c2)C1 [Example 252, 1-[3-[3-oxo-7-(trifluoromethyl)-1,4-benzoxazin-4-yl]phenyl]azetidine-3-carboxylic acid] | – | – | 96 | 2090 | 105 | 719
83 | CCC1(CC)CN(c2cccc(N3CC(C(=O)O)C3)c2)c2ccc(C(F)(F)F)cc21 [Example 255, 1-[3-[3,3-diethyl-5-(trifluoromethyl)indolin-1-yl]phenyl]azetidine-3-carboxylic acid] | – | – | 103 | 44 | 104 | 18
159 to 161 | CCC1(CC)C(=O)N(c2cccc(N3CC(C(=O)O)C3)c2)c2ccc(C(F)(F)F)cc21 [Example 258, 1-[3-[3,3-diethyl-2-oxo-5-(trifluoromethyl)indolin-1-yl]phenyl]azetidine-carboxylic acid] | – | – | 107 | 755 | 102 | 236
96 to 100 | CC1(C)Cc2cc(C(F)(F)F)ccc2N(c2cccc(N3CC(C(=O)O)C3)c2)C1=O [Example 259, 1-[3-[3,3-dimethyl-2-oxo-6-(trifluoromethyl)-4H-quinolin-1-yl]phenyl]azetidine-3-carboxylic acid] | – | – | 98 | 349 | 95 | 101
55 to 82 | CC(C)c1ccc2c(c1)c1c(n2-c2cccc(N3CC(C(=O)O)C3)c2)CCC(C)(C)C1 [Example 260, 1-[3-(6-isopropyl-3,3-dimethyl-2,4-1H-carbzaol-9-yl)phenyl]azetidine-3-carboxylic acid] | – | – | 56 | 551 | 56 | 255
141 to 170 | O=C([O-])C1CN(c2cccc(N3c4ccc(Cl)cc4C4CCCC43)c2)C1.[Na+] (centres unmarked) [Example 261, sodium 1-[3-(7-chloro-2,3,3a,8b-tetrahydro-1H-cyclopenta[b]indol-4-yl)phenyl]azetidine-3-carboxylate] | – | – | 95 | 304 | 78 | 31
94 to 96 | Cc1nc2cc(C(F)(F)F)ccc2n1-c1cccc(N2CC(C(=O)O)C2)c1 [Example 262, 1-[3-[2-methyl-5-(trifluoromethyl)benzimidazol-1-yl]phenyl]azetidine-3carboxylic acid] | – | – | 98 | 2830 | 81 | 1700
201 to 214 | CCC1(C)C=C(c2cccc(N3CC(C(=O)[O-])C3)c2)c2ccc(C(F)(F)F)cc2O1.[Na+] (centres unmarked) [Example 266, sodium 1-[3-[2-ethyl-2-methyl-7-(trifluoromethyl)chromen-4-yl]phenyl]azetidine-3-carboxylate] | – | – | 113 | ~1 | 112 | 1
62 to 69 | O=C([O-])C1CN(c2cccc(N3c4ccc(Cl)cc4C4CC43)c2)C1.[Na+] (centres unmarked) [Example 280, sodium 1-[3-(5-chloro-1a,6b-dihydro-1H-cyclopropa[b]indol-2-yl)phenyl]azetidine-3-carboxylate] | – | – | 77 | 148 | 95 | 82
